Values of other authors in US10537540B2, “Pharmaceutical composition for promoting nerve injury restoration and application thereof” (priority 2012, dated 2020).

Assays:
[1] = system: rat spinal cord injury model
[2] = intravenous infusion of 5 g

Row | SMILES | Lipid peroxidation and free radicals after spinal cord injury [1] | Urine induced [2]
1 | Cc1c(C)c2c(c(C)c1OP(=O)([O-])OC1=C(O)[C@@H]([C@@H](O)CO)OC1=O)CC[C@@](C)(CCC[C@H](C)CCC[C@H](C)CCCC(C)C)O2.[K+] [EPC-K1] | significantly block lipid peroxidation and remove free radicals | 
2 | Cc1ncc(CO)c(CO)c1O.Cl [vitamin B6] |  | about 380 mL
